{"source": "patent US20060099283A1", "about": "“Leaf juice of plectranthus amboinicus for treating cancer and/or tumor” (priority 2004, published 2006)", "key": {"Huh7": {"tested_on": "Huh7", "test": "Huh7 hepatocellular carcinoma cell count after treatment", "type": "cell-based", "settings": "Homo sapiens, Huh-7, 72 h; Huh7, day 3, 50 nM paciltaxel; read-out: inhibiting rate (cell growth)", "source_text": "Cell lines: The following nine human tumor cell lines of different histologic origins were obtained from commercial cell culture collections unless indicated otherwise: HepG2 (haptocellular carcinoma, liver; provided by Dr. C H Huang, National Health Research Institute, Taipei, Taiwan), Hep3B (haptocellular carcinoma, liver; provided by Dr. C H Huang, National Health Research Institute, Taipei, Taiwan), U937 (myeloid leukemia), K562 (chronic myeloid leukemia, bone marrow), Calu-1 (epidermoid carcinoma, lung; provided by Dr. Y C Kuo, National Institute of Traditional Chinese Medicine, Taipei, Taiwan), TL (trophoblast-like cell line, placenta; provided by Dr. C K Ho, Veteran General Hospital, Taipei, Taiwan), Jurket (human lymphoblastoid T cell line), Bowes (human melanoma cell), and Huh7 (hepatocellular carcinoma/ectoderm).\nCultures were maintained at 37° C. in a humidified atmosphere containing 5% CO2. All cell reagents were obtained from Gibco-Invitrogen Co., Ltd (Grand Island, N.Y. U.S.A.) and HyClone (Logan, Utah, U.S.A.).\n(§1) Treatment: In all in vitro experiments, 3% of the leaf juice prepared according to Example 1 was added to the cells after subcultured directly.\nCell count: Total cell counts were made by adding 20 μL of the cell suspension to 20 μL of 0.4% trypan blue, and counted under a phase contrast microscope. […]"}, "HepG2": {"tested_on": "HepG2", "test": "HepG2 hepatocellular carcinoma cell count after treatment", "type": "cell-based", "settings": "Homo sapiens, 72 h; HepG2, day 3, 50 nM paciltaxel; read-out: inhibiting rate (cell growth)", "procedure": "HepG2 and Hep3B cells were cultured in minimum essential medium supplemented with 10% fetal calf serum, 2 mM L-glutamine, 50 IU/mL penicillin, and 50 μg/mL streptomycin.\nCultures were maintained at 37° C. in a humidified atmosphere containing 5% CO2.\nas §1\nCell count: Total cell counts were made by adding 20 μL of the cell suspension to 20 μL of 0.4% trypan blue, and counted under a phase contrast microscope.\nThe hepatocellular carcinoma cell lines used in the example are HepG2 and Huh7, and the manipulations of the cell culture and treatment are as described in Example 2. The cells were grouped into a control group (without treatment) and experiment groups treated with 5% of leaf juice, 50 nM paciltaxel, and combining 5% of leaf juice and 50 nM paciltaxel. Each group was repeated six times."}}, "data": [{"smiles": "CC(=O)O[C@H]1C(=O)[C@@]2(C)[C@H]([C@H](OC(=O)c3ccccc3)[C@]3(O)C[C@H](OC(=O)[C@H](O)[C@@H](NC(=O)c4ccccc4)c4ccccc4)C(C)=C1C3(C)C)[C@]1(OC(C)=O)CO[C@@H]1C[C@@H]2O", "note": "[paciltaxel]", "values": [{"measurement": "inhibition at 0.05 µM", "setting": "Huh7", "value": 66.1, "unit": "%"}, {"measurement": "inhibition at 0.05 µM", "setting": "HepG2", "value": 43.8, "unit": "%"}]}]}
